According to patent publication US20250195445A1, “LONG-LASTING ANTIMICROBIAL COMPOSITIONS CONTAINING CATIONIC ACTIVE AGENTS AND ANIONIC EXCIPIENTS AND USES” (priority 2022, published 2025):

Experiment: isothermal nanotitration calorimetry, interaction with beta-cyclodextrin
Format: physicochemical
Settings: for strength of interaction with beta-cyclodextrin: adimensional values
Text: In adimensional values: 1000×10^6 and 737×10^6, respectively (Table 6). [table]

strength of interaction with beta-cyclodextrin | interaction with beta-cyclodextrin relative to interaction of sodium lauryl sulfate with beta-cyclodextrin (calorimetric analyses) | SMILES
1000×10^6 | about 1000 times | N=C(NCCCCCCNC(=N)NC(=N)Nc1ccc(Cl)cc1)NC(=N)Nc1ccc(Cl)cc1 [chlorhexidine digluconate, 1,1′-hexamethylene bis(5-(p-chlorophenyl)biguanide)]
737×10^6 |  | CCCCCCCCCCCCOS(=O)(=O)[O-].[Na+] [sodium lauryl sulfate]
